Test results taken from patent US20230406865A1, “CRYSTAL FORM OF FREE BASE OF INHIBITOR CONTAINING BICYCLIC RING DERIVATIVE AND PREPARATION METHOD AND APPLICATION OF CRYSTAL FORM” (SHANGHAI HANSOH BIOMEDICAL CO., LTD., priority 2020, published 2023).

Columns and labels:
[1] = molecular target: T1, RET kinase (Homo sapiens, UniProt P07949); assay: HTRF kinase activity inhibition, RET wild-type; format: biochemical; settings: ATP at Km
T1 construct: purchased Carna 08-159
In short: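 HTRF (KinEASE-TK) kinase assay with recombinant RET wild-type, RET V804M, RET V804L and KIF5B-RET enzymes plus ATP.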

[2] = Balb/C mouse pharmacokinetics, oral 5 mg/kg; format: in vivo, Balb/C mice; settings: male, p.o. 5 mg/kg, plasma; for MRT: read-out: Average residence time MRT; for Cmax: read-out: Blood concentration Cmax; for AUC(0-t): read-out: Curve area AUC0-t; for AUC(0-inf): read-out: Curve area AUC0-∞; for half-life: read-out: Half-life t1/2 (converted); for Tmax: read-out: Peak time tmax
In short: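 Male Balb/C mice (6 per compound) were fasted overnight and dosed in 0.5% CMC-Na (1% Tween80) solution or suspension. EDTA-K2 plasma was sampled at 0, 0.5, 1, 2, 4, 6, 8 and 24 h. Compound levels were measured by LC/MS/MS after acetonitrile precipitation, and PK parameters were derived from the plasma profiles.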

[3] = test system: TT cells (MTC, RET C634W); assay: Inhibition of proliferation of TT cells (CellTiter-Glo, 72 h); format: cell-based; settings: Homo sapiens
In short: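 TT cells seeded overnight, then exposed to compound dilutions for 72 h at 37 °C, 5% CO2, with a solvent control. Viability read by CellTiter-Glo luminescence; IC50 from nonlinear regression of inhibition rate versus concentration.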

[4] = molecular target: T2, KDR kinase (Homo sapiens, UniProt P35968); assay: HTRF kinase activity inhibition, KDR; format: biochemical; settings: for IC50: HTRF, ATP at Km; for Ratio (KDR/RET): KDR IC50 / RET IC50
T2 construct: purchased Carna 08-191
In short: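 Inhibition of KDR kinase activity measured by homogeneous time-resolved fluorescence with a tyrosine-kinase KinEASE substrate kit and ATP.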

[5] = molecular target: T3, Ba/F3 KIF5B-RET cells (Homo sapiens, UniProt P07949); assay: Inhibition of proliferation of Ba/F3 KIF5B-RET cells (CellTiter-Glo); format: cell-based; settings: 72 to 144 hours
T3 construct: fused on or other part: P33176 (Kinesin-1 heavy chain)
In short: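 Cells plated overnight, then exposed to compound dilutions in DMSO/medium at 37° C, 5% CO2 for 72 to 144 hours. Viability read by CellTiter-Glo luminescence; IC50 from inhibition rates fitted by nonlinear regression.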

T1 sequence (P07949 29-1114): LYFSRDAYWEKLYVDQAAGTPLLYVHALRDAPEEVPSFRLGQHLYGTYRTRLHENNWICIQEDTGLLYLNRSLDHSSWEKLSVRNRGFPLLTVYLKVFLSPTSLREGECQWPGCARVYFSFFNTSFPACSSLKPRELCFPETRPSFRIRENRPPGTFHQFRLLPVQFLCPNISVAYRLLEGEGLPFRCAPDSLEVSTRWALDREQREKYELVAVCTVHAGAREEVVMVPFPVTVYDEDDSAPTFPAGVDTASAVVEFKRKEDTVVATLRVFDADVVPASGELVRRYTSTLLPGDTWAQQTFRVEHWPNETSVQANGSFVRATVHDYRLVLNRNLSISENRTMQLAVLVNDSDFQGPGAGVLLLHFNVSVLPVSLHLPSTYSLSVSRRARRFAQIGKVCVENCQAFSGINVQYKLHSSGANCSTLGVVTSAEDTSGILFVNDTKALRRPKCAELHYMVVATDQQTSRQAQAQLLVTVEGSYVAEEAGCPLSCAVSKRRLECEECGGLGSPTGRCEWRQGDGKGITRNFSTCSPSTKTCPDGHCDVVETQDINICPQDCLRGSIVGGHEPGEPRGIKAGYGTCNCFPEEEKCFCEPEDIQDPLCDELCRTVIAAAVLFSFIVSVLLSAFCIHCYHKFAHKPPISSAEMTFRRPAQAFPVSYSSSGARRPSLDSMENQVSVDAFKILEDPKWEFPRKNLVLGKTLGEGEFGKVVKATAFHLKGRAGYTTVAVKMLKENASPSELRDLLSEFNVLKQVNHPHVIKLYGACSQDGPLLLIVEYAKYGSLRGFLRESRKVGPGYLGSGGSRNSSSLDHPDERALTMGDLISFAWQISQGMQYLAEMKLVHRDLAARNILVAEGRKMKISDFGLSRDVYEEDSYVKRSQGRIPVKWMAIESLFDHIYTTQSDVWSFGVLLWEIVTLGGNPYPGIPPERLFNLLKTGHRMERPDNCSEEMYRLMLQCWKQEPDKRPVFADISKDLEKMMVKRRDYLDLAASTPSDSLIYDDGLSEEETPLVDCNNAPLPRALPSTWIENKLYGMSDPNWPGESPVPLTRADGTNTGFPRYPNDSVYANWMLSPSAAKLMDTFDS
T2 sequence (P35968 20-1356): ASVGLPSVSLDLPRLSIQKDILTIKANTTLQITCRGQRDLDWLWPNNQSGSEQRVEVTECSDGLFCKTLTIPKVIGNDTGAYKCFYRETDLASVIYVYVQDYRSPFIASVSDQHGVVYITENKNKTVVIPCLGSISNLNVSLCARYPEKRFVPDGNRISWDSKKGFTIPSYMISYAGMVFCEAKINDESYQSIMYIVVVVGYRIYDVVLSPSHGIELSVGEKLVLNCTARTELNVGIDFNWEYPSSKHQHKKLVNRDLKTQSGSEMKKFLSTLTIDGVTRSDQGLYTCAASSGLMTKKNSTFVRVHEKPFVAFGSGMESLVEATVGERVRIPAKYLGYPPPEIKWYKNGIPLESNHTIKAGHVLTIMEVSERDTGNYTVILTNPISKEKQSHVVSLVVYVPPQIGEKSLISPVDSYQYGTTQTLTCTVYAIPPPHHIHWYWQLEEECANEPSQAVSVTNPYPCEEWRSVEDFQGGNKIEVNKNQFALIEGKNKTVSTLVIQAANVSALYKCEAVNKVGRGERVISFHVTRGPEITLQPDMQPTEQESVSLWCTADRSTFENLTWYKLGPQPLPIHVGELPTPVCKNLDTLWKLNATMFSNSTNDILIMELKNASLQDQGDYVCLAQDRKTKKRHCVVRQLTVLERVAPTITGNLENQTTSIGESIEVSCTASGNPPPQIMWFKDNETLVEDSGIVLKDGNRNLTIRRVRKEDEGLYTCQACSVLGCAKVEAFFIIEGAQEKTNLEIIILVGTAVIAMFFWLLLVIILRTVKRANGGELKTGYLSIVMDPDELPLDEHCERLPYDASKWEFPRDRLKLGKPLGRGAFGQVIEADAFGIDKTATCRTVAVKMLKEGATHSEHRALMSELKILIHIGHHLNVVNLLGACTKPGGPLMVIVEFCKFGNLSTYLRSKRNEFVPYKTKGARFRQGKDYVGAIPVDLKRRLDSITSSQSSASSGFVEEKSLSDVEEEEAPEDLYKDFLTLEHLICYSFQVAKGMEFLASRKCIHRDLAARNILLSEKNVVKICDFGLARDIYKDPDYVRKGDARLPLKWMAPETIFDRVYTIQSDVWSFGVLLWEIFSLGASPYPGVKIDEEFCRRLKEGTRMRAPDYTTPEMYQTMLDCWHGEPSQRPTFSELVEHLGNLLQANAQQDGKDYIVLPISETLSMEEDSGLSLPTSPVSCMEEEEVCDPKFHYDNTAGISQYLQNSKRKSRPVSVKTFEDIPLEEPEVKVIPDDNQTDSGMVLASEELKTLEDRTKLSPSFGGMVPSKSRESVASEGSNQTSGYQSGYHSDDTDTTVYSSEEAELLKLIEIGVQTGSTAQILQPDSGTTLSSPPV
T3 sequence (P07949 whole entry, change not shown, the tested form may be a part): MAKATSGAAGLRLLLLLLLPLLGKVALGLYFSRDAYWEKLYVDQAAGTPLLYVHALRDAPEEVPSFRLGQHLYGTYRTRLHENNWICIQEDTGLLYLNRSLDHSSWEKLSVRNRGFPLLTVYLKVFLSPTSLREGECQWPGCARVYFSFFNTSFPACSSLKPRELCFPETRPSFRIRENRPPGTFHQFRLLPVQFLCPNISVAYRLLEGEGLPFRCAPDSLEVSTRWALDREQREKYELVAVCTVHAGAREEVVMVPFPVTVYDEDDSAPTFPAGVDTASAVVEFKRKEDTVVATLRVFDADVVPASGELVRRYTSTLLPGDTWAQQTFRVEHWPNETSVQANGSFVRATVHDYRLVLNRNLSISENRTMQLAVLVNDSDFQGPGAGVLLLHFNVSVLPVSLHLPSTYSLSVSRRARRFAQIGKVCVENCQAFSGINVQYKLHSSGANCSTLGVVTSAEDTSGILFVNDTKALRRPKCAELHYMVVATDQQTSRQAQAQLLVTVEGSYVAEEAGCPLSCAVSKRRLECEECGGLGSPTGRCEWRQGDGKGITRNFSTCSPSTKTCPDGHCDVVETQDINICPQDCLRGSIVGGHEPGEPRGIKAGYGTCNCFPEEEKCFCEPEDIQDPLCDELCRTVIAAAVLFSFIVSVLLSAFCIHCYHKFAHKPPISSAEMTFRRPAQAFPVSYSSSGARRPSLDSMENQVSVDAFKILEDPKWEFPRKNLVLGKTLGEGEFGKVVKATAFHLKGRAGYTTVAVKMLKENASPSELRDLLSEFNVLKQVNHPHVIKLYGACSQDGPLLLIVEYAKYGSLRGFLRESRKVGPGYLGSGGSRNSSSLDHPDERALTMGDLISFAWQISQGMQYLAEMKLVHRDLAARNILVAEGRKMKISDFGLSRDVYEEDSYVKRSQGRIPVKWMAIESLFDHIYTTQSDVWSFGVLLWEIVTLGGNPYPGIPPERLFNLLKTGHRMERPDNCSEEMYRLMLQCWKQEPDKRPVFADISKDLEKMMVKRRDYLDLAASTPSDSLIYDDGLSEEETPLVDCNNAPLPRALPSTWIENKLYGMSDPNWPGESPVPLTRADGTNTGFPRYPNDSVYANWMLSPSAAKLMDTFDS

Compound	IC50 [1]	MRT [2]	Cmax [2]	AUC(0-t) [2]	AUC(0-inf) [2]	half-life [2]	Tmax [2]	IC50 [3]	IC50 [4]	Ratio (KDR/RET) [4]	IC50 [5]
COc1ncc(CN2C3CC2CN(c2ccc(-c4cc(OCC5(C#N)CC5)cn5ncc(C#N)c45)cn2)C3)cc1F [Embodiment 55, 6-((1-Cyanocyclopropyl)methoxy)-4-(6-(6-((5-fluoro-6-methoxypyridin-3-yl)methyl)-3,6-diazabicyclo[3.1.1]heptan-3-yl)pyridin-3-yl)pyrazolo[1,5-a]pyridine-3-carbonitrile]	0.31 nM	6.51 h	1940 ng/mL	21600 ng·h/mL	22100 ng·h/mL	4.26 h	2 h	28.5 nM	37.5 nM	121	19.6 nM
COc1ccc(CN2C3CC2CN(c2ccc(-c4cc(OCC(C)(C)C#N)cn5ncc(C#N)c45)cn2)C3)cn1 [Embodiment 9, 6-(2-Cyano-2-methylpropoxy)-4-(6-(6-((6-methoxypyridin-3-yl)methyl)-3,6-diazabicyclo[3.1.1]heptan-3-yl)pyridin-3-yl)pyrazolo[1,5-a]pyridine-3-carbonitrile]	0.76 nM	5.84 h	1920 ng/mL	16100 ng·h/mL	16400 ng·h/mL	4.2 h	0.5 h	29.3 nM	70 nM	92	28.9 nM
COc1ncc(CN2C3CC2CN(c2ccc(-c4cc(OCC5(C#N)CCOCC5)cn5ncc(C#N)c45)cn2)C3)cc1F [Embodiment 60, 6-((4-Cyanotetrahydro-2H-pyran-4-yl)methoxy)-4-(6-(6-((5-fluoro-6-methoxypyridin-3-yl)methyl)-3,6-diazabicyclo[3.1.1]heptan-3-yl)pyridin-3-yl)pyrazolo[1,5-a]pyridine-3-carbonitrile]	0.58 nM	5.56 h	3080 ng/mL	28000 ng·h/mL	28200 ng·h/mL	3.26 h	0.5 h	28.4 nM	257 nM	445	18 nM
